Numbers after ± are expanded uncertainties.
Experiment: excess molar enthalpy (molar enthalpy of mixing); xn = mol fraction of the nth substance listed
Conditions: 100 kPa, Liquid, Calvet calorimetry

| Compound | excess molar enthalpy (1006 K, x2 = 0.0993) | excess molar enthalpy (813 K, x1 = 0.9) | excess molar enthalpy (1017 K, x1 = 0.0996) | excess molar enthalpy (1018 K, x1 = 0.5) |
| --- | --- | --- | --- | --- |
| [Li] [lithium] + [Zn] | -0.526 ± 0.287 kcal/mol |  |  |  |
| [Zn] [zinc] + [Ga] |  | 0.191 ± 0.143 kcal/mol | 0.12 ± 0.0478 kcal/mol | 0.382 ± 0.0956 kcal/mol |

— the NIST ThermoML archive (doi:10.1016/j.tca.2017.10.004)
